Data from US9351485B2, “Use of sophorolipids and derivatives thereof in combination with pesticides as adjuvant/additive for plant protection and the industrial non-crop field” (EVONIK DEGUSSA GMBH, priority 2009, dated 2016).

Test system: mildew fungus Blumeria graminis f. sp. hordei (race A6)
Assay: Protective fungicide glasshouse trial on barley (mildew)
Type: in vivo
Settings: Table 6; Sulfur 250 g/ha, no adjuvant; 10 days after application
Text: The plants (barley) were cultivated under glass in exactly the same way as in the curative trial. For the protective trials, however, the plants were sprayed at about three weeks old with spray solutions containing the active fungicidal ingredient sulfur (Microthiol WG 80% sulfur from Stähler), either alone or in combination with adjuvants/additives. Furthermore, in order to test for synergy, the adjuvant was applied in the spray solution alone, in other words without sulfur. The sulfur dose was 1000 ppm/l, while the adjuvants were used in different doses (for doses see results tables). The amount of spray solution was 250 l/ha, and so the adjuvant concentration in the spray solution was not more than 0.1%; the sulfur dose was 250 g/ha. […]
The activity of the adjuvant alone, of the pesticide alone (i.e., of the fungicides or herbicides), and of the pesticide/adjuvant combination was calculated, in a manner known to the skilled person, in comparison to an untreated control sample, which was nevertheless inoculated with the mildew fungus, and expressed in % control of the disease.

`S1SSSSSSS1` [Sulfur, sulfur] was tested, and the “Efficacy (%)” value was 46%.
